Measured values from patent US20180332881A1, “PRETERM INFANT FORMULA […] AND USES THEREOF” (Mead Johnson Nutrition Company, priority 2017, published 2018).

Tested on: oligodendrocyte precursor cells (OPCs)
Assay: Differentiation of purified oligodendrocyte precursor cells (OPCs) into mature oligodendric cells (MBP / PDGFRα immunostaining)
Assay type: cell-based, rat
Conditions: 48 hours
Procedure: The OPCs were purified from P7 rat brain cortices. Rodent brain cortices were diced and dissociated with papain at 37° C. After trituration, […] were resuspended in a panning buffer and incubated at room temperature sequentially on the three immunopanning dishes: Ran-2 and GalC were used for negative selection before positive selection with 04. OPCs were released from the panning dish using 0.05% Trypsin. OPCs were seeded onto PPL-coated coverslips at 200,000 per 25 mm circle coverslip in a chemically defined culture medium with PDGFa overnight.
Sodium Butyrate (NaB) was dissolved in sterile water and added into culture medium the next day to reach desire concentration. OPC coverslips were placed into 6-well dishes, 1 ml of NaB-containing culture medium without PDGFα was added to each well. Cells were cultured for 48 hours before fixation and immunostaining. PDGFRα antibody identifies OPCs and MBP (myelin basic protein) antibody labels differentiated oligodendrocytes. Percentage of MBP-positive cells out of all PDGFRα- and MBP-positives cells were quantified.
Examining a dose response for sodium butyrate on purified oligodendroglial cultures. Sodium butyrate was added to purified oligodendroglial cultures and cells were analyzed after 48 hours of treatment for effects on survival, proliferation and differentiation. Oligodendrocyte precursor cells were immunostained with PDGFRα shown in green, oligodendrocytes were immunostained with MBP in red, cell nuclei were labeled with DAPI in blue. Percentage of MBP-positive oligodendrocytes among all oligodendroglial cells was quantified at various concentrations of sodium butyrate. The asterisks represent significance based on Students t-test with the respective controls (*p<0.05, **p<0.01)

`CCCC(=O)[O-].[Na+]` [sodium butyrate, Sodium Butyrate] was tested, and the “effect to promote OPC to differentiate into mature oligodendric cells (dose response)” value (50 nM to 250 μM) was “dose-dependent manner”, the “number of oligodendric cells from OPC compared to the control (MBP immunohistochemistry, FIG. 7)” value (250 μM sodium butyrate) was “statistically significant increase” and the “fold increase in the numbers of differentiated and matured oligodendric cells as compared to the control” value (250 μM sodium butyrate, OPCs from P7 rat brain cortices) was 2.6 fold. The “increase in Oligo cells (percentage of MBP-positive cells) as compared to the control” value (each of the concentrations tested (50 nM, 500 nM, 5 μM, 50 μM, 250 μM)) was “statistically significant increase”.
